Test results as given in patent US7473790B2 (Pfizer Inc., priority 2003, dated 2009).

Target: T1, HCV polymerase (Hepatitis C virus genotype 1b, UniProt P26663)
T1 construct: 2.5 pmoles (0.15 μg) HCV polymerase protein in a final volume of 75 μL
Assay: HCV polymerase primer/template-directed transcription assay (32P-GTP incorporation, filter binding)
Type: biochemical
Conditions: @ 50 uM compound; given where IC50 was impractical to calculate; read-out: percent inhibition
Summary of the method: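 Recombinant genotype 1b polymerase (30 nM) extended biotin-dG12 primer on poly(rC)300 template with 1 μM GTP plus α-32P-GTP, pH 7.2, 10 mM MgCl2, 30 min at 30° C, 1% DMSO final. Products captured on DE filters and counted. IC50 fitted from triplicate cpm, with a tight-binding correction applied below 200 nM.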

T1 sequence (P26663 2420-3010): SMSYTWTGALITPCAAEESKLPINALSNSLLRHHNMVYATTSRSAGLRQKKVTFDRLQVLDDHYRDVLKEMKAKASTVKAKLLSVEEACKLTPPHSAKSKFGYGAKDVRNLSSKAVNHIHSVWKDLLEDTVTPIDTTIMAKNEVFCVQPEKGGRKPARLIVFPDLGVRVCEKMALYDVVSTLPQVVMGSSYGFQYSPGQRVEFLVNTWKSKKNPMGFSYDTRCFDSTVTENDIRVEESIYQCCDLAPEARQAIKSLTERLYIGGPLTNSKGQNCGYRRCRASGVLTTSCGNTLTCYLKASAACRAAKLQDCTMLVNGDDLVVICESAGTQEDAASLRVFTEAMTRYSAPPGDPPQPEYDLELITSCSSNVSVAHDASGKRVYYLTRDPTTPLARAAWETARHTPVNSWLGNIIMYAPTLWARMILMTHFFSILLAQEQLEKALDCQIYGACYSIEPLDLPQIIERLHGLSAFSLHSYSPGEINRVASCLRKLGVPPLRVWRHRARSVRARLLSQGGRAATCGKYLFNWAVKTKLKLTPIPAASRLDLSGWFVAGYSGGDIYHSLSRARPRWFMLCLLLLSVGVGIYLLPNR

Row | Structure (SMILES) | inhibition at 50 µM
1 | CC(=O)n1nc(C)c(CCC2(C3CCCC3)CC(=O)CC(=O)O2)c1C (stereo not shown) [A(19), 6-[2-(1-Acetyl-3,5-dimethyl-1H-pyrazol-4-yl)-ethyl]-6-cyclopentyl-dihydro-pyran-2,4-dione] | 37%
2 | CCC1(CCc2ccc(OC)cc2)CC(=O)CC(=O)O1 (stereo not shown) [A(23), 6-Ethyl-6-[2-(4-methoxy-phenyl)-ethyl]-dihydro-pyran-2,4-dione] | 1%
3 | COc1ccc(CCC2(CC(C)C)CC(=O)CC(=O)O2)cc1 (stereo not shown) [A(24), 6-Isobutyl-6-[2-(4-methoxy-phenyl)-ethyl]-dihydro-pyran-2,4-dione] | 29%
4 | C=CCC1(CCc2ccc(OC)cc2)CC(=O)CC(=O)O1 (stereo not shown) [A(26), 6-Allyl-6-[2-(4-methoxy-phenyl)-ethyl]-dihydro-pyran-2,4-dione] | 20%
5 | CCOC(=O)CC(=O)N[C@H](C)c1ccc(CCC2(C3CCCC3)CC(=O)CC(=O)O2)cc1 (stereo partly shown) [A(39), N-(1-{4-[2-(2-Cyclopentyl-4,6-dioxo-tetrahydro-pyran-2-yl)-ethyl]-phenyl}-ethyl)-malonamic acid ethyl ester] | 14%

Same assay, conditions: recombinant HCV polymerase; 30 minutes at 30° C.; concentration giving 50% inhibition of polymerase-directed transcription; read-out: IC50

Row | Structure (SMILES) | IC50
6 | CN(C)C(=O)c1ccc(CCC2(C3CCCC3)CC(=O)CC(=O)O2)cc1F (stereo not shown) [A(16), 4-[2-(2-Cyclopentyl-4,6-dioxo-tetrahydro-pyran-2-yl)-ethyl]-2-fluoro-N,N-dimethyl-benzamide] | 14.4 µM
7 | CCNC(=O)c1ccc(CCC2(C3CCCC3)CC(=O)CC(=O)O2)cc1F (stereo not shown) [A(17), 4-[2-(2-Cyclopentyl-4,6-dioxo-tetrahydro-pyran-2-yl)-ethyl]-N-ethyl-2-fluoro-benzamide] | 23 µM
8 | Cc1noc(C)c1-c1ccc(CCC2(C3CCCC3)CC(=O)CC(=O)O2)cc1 (stereo not shown) [A(18), 6-Cyclopentyl-6-{2-[4-(3,5-dimethyl-isoxazol-4-yl)-phenyl]-ethyl}-dihydro-pyran-2,4-dione] | 3.1 µM
9 | CCc1cc(CCC2(C3CCCC3)CC(=O)CC(=O)O2)ccc1O (stereo not shown) [A(22), 6-Cyclopentyl-6-[2-(3-ethyl-4-hydroxy-phenyl)-ethyl]-dihydro-pyran-2,4-dione] | 0.3 µM
10 | CCCC1(CCc2ccc(OC)cc2)CC(=O)CC(=O)O1 (stereo not shown) [A(25), 6-[2-(4-Methoxy-phenyl)-ethyl]-6-propyl-dihydro-pyran-2,4-dione] | 73.9 µM
11 | CC1(c2ccc(CCC3(C4CCCC4)CC(=O)CC(=O)O3)cc2Cl)CC(=O)CC(=O)O1 (stereo not shown) [A(27), 6-[2-(3-Chloro-4-(6-Methyl-dihydro-pyran-2,4-dione)-phenyl)-ethyl]-6-cyclopentyl-dihydro-pyran-2,4-dione] | 0.125 µM
12 | CC1(c2cccc(CCC3(C4CCCC4)CC(=O)CC(=O)O3)c2)CC(=O)CC(=O)O1 (stereo not shown) [A(28), 6-Cyclopentyl-6-[2-(3-(6-Methyl-dihydro-pyran-2,4-dione)-phenyl)-ethyl]-dihydro-pyran-2,4-dione] | 3.9 µM
13 | CC1(c2ccc(CCC3(C4CCCC4)CC(=O)CC(=O)O3)cc2)CCC(=O)O1 (stereo not shown) [A(29), 6-Cyclopentyl-6-{2-[4-(2-methyl-5-oxo-tetrahydro-furan-2-yl)-phenyl]-ethyl}-dihydro-pyran-2,4-dione] | 1.5 µM
14 | CCC1(c2ccc(CCC3(C4CCCC4)CC(=O)CC(=O)O3)cc2Cl)CC(=O)CC(=O)O1 (stereo not shown) [A(30), 6-[2-(3-Chloro-4-(6-Ethyl-dihydro-pyran-2,4-dione)-phenyl)-ethyl]-6-cyclopentyl-dihydro-pyran-2,4-dione] | 0.84 µM
15 | O=C1CC(=O)OC(CCc2ccc(C3(C4CC4)CC(=O)CC(=O)O3)cc2)(C2CCCC2)C1 (stereo not shown) [A(31)] | 0.4 µM
16 | O=C1CC(=O)OC(CCc2ccc(C(=O)C3CC3)cc2)(C2CCCC2)C1 (stereo not shown) [A(32), 6-Cyclopentyl-6-[2-(4-cyclopropanecarbonyl-phenyl)-ethyl]-dihydro-pyran-2,4-dione] | 5.2 µM
17 | COC(=O)C(C)(C)c1ccc(CCC2(C3CCCC3)CC(=O)CC(=O)O2)cc1 (stereo not shown) [A(33), 2-{4-[2-(2-Cyclopentyl-4,6-dioxo-tetrahydro-pyran-2-yl)-ethyl]-phenyl}-2-methyl-propionic acid methyl ester] | 5 µM
18 | CC(C)(C)C1(c2ccc(CCC3(C4CCCC4)CC(=O)CC(=O)O3)cc2)OCCO1 (stereo not shown) [A(34), 6-{2-[4-(2-tert-Butyl-[1,3]dioxolan-2-yl)-phenyl]-ethyl}-6-cyclopentyl-dihydro-pyran-2,4-dione] | 10 µM
19 | C[C@@H](O)c1ccc(CCC2(C3CCCC3)CC(=O)CC(=O)O2)cc1 (stereo partly shown) [A(35), 6-Cyclopentyl-6-{2-[4-(1-hydroxy-ethyl)-phenyl]-ethyl}-dihydro-pyran-2,4-dione] | 4.1 µM
20 | C[C@H](O)c1ccc(CCC2(C3CCCC3)CC(=O)CC(=O)O2)cc1 (stereo partly shown) [A(36), 6-Cyclopentyl-6-{2-[4-(1-hydroxy-ethyl)-phenyl]-ethyl}-dihydro-pyran-2,4-dione] | 8.4 µM
21 | CC(C)(C)C(=O)c1ccc(CCC2(C3CCCC3)CC(=O)CC(=O)O2)cc1 (stereo not shown) [A(37), 6-Cyclopentyl-6-{2-[4-(2,2-dimethyl-propionyl)-phenyl]-ethyl}-dihydro-pyran-2,4-dione] | 8.7 µM
22 | CC(=O)N[C@H](C)c1ccc(CCC2(C3CCCC3)CC(=O)CC(=O)O2)cc1 (stereo partly shown) [A(38), N-(1-{4-[2-(2-Cyclopentyl-4,6-dioxo-tetrahydro-pyran-2-yl)-ethyl]-phenyl}-ethyl)-acetamide] | 12 µM
23 | N#CC1(c2ccc(CCC3(C4CCCC4)CC(=O)CC(=O)O3)cc2)CC1 (stereo not shown) [A(40), 1-{4-[2-(2-Cyclopentyl-4,6-dioxo-tetrahydro-pyran-2-yl)-ethyl]-phenyl}-cyclopropanecarbonitrile] | 2 µM

Row | Structure (SMILES) | IC50
24 | CNC(=O)N[C@H](C)c1ccc(CCC2(C3CCCC3)CC(=O)CC(=O)O2)cc1 (stereo partly shown) [A(41), 1-(1-{4-[2-(2-Cyclopentyl-4,6-dioxo-tetrahydro-pyran-2-yl)-ethyl]-phenyl}-ethyl)-3-methyl-urea] | 13 µM
25 | C[C@@H](NS(C)(=O)=O)c1ccc(CCC2(C3CCCC3)CC(=O)CC(=O)O2)cc1 (stereo partly shown) [A(42), N-(1-{4-[2-(2-Cyclopentyl-4,6-dioxo-tetrahydro-pyran-2-yl)-ethyl]-phenyl}-ethyl)-methanesulfonamide] | 8 µM
26 | Cc1cc(C(=O)N[C@H](C)c2ccc(CCC3(C4CCCC4)CC(=O)CC(=O)O3)cc2)no1 (stereo partly shown) [A(43), 5-Methyl-isoxazole-3-carboxylic acid (1-{4-[2-(2-cyclopentyl-4,6-dioxo-tetrahydro-pyran-2-yl)-ethyl]-phenyl}-ethyl)-amide] | 20 µM
27 | O=C1CC(=O)OC(CCC2CCCCC2)(C2CCCC2)C1 (stereo not shown) [A(44), 6-(2-Cyclohexyl-ethyl)-6-cyclopentyl-dihydro-pyran-2,4-dione] | 68.3 µM
28 | N#Cc1cccc(-c2ccc(CCC3(C4CCCC4)CC(=O)CC(=O)O3)cc2)c1 (stereo not shown) [A(45), 4′-[2-(2-Cyclopentyl-4,6-dioxo-tetrahydro-pyran-2-yl)-ethyl]-biphenyl-3-carbonitrile] | 30 µM
29 | N#Cc1ccccc1CCC1(C2CCCC2)CC(=O)CC(=O)O1 (stereo not shown) [A(46), 2-[2-(2-Cyclopentyl-4,6-dioxo-tetrahydro-pyran-2-yl)-ethyl]-benzonitrile] | 73 µM
30 | O=C1CC(=O)OC(CCc2ccc3ccccc3c2)(C2CCCC2)C1 (stereo not shown) [A(47), 6-Cyclopentyl-6-(2-naphthalen-2-yl-ethyl)-dihydro-pyran-2,4-dione] | 7 µM
31 | O=C1CC(=O)OC(CCc2ccc(OC3CCCCO3)cc2)(C2CCCC2)C1 (stereo not shown) [A(48), 6-Cyclopentyl-6-{2-[4-(tetrahydro-pyran-2-yloxy)-phenyl]-ethyl}-dihydro-pyran-2,4-dione] | 33.2 µM
32 | CNC(=O)C(C)(C)c1ccc(CCC2(C3CCCC3)CC(=O)CC(=O)O2)cc1 (stereo not shown) [A(49), 2-{4-[2-(2-Cyclopentyl-4,6-dioxo-tetrahydro-pyran-2-yl)-ethyl]-phenyl}-N-methyl-isobutyramide] | 9 µM
33 | O=C1CC(=O)OC(CCc2ccc(-c3nnc(-c4ccccc4)o3)cc2)(C2CCCC2)C1 (stereo not shown) [A(50), 6-Cyclopentyl-6-{2-[4-(5-phenyl-[1,3,4]oxadiazol-2-yl)-phenyl]-ethyl}-dihydro-pyran-2,4-dione] | 5.9 µM
34 | CCNC(=O)C(C)(C)c1ccc(CCC2(C3CCCC3)CC(=O)CC(=O)O2)cc1 (stereo not shown) [A(51), 2-{4-[2-(2-Cyclopentyl-4,6-dioxo-tetrahydro-pyran-2-yl)-ethyl]-phenyl}-N-ethyl-isobutyramide] | 3.9 µM
35 | COC(=O)CC(=O)CC(=O)C(C)(C)Oc1ccc(CCC2(C3CCCC3)CC(=O)CC(=O)O2)cc1F (stereo not shown) [A(52), 6-{4-[2-(2-Cyclopentyl-4,6-dioxo-tetrahydro-pyran-2-yl)-ethyl]-2-fluoro-phenoxy}-6-methyl-3,5-dioxo-heptanoic acid methyl ester] | 1.5 µM
36 | COC(=O)C(C)(C)Oc1ccc(CCC2(C3CCCC3)CC(=O)CC(=O)O2)cc1Cl (stereo not shown) [A(53), 2-{2-Chloro-4-[2-(2-cyclopentyl-4,6-dioxo-tetrahydro-pyran-2-yl)-ethyl]-phenoxy}-2-methyl-propionic acid methyl ester] | 3.3 µM
37 | O=C(O)COc1ccc(CCC2(C3CCCC3)CC(=O)CC(=O)O2)cc1Cl (stereo not shown) [A(54)] | 2.9 µM
38 | COC(=O)C(C)(C)Oc1ccc(CCC2(C3CCCC3)CC(=O)CC(=O)O2)cc1F (stereo not shown) [A(55), 2-{4-[2-(2-Cyclopentyl-4,6-dioxo-tetrahydro-pyran-2-yl)-ethyl]-2-fluoro-phenoxy}-2-methyl-propionic acid methyl ester] | 11.2 µM
39 | Cc1nc(C(C)(C)c2ccc(CCC3(C4CCCC4)CC(=O)CC(=O)O3)cc2)no1 (stereo not shown) [A(56), 6-Cyclopentyl-6-(2-{4-[1-methyl-1-(5-methyl-[1,2,4]oxadiazol-3-yl)-ethyl]-phenyl}-ethyl)-dihydro-pyran-2,4-dione] | 39 µM
40 | O=C1CC(=O)OC(CCCCC2CCCCC2)(C2CCCC2)C1 (stereo not shown) [A(57), 6-(4-Cyclohexyl-butyl)-6-cyclopentyl-dihydro-pyran-2,4-dione] | 6.3 µM
